Converted amounts (≈) assume the structure as drawn. Like-named read-outs stand apart in the source and are kept apart here.
Columns and labels:
[1] = Solubility in water, FaSSIF and FeSSIF; format: physicochemical
[2] = system: spontaneous uterine contractions; experiment: Spontaneous uterine activity in late-term anaesthetized pregnant rat; format: in vivo; conditions: late-term pregnant rats
Source text: The tocolytic effects of compound I and compound II were investigated in a model of spontaneous uterine activity in late-term (19-21 days of gestation) anaesthetized pregnant rat (Kawarabayashi et al. Am. J. Obstet. Gynecol. 175:1348-1355 (1996) and Shinkai et al. J. Pharm. Pharmacol. 52:1417-1423 (2000)). Briefly, late-term pregnant female rats were anaesthetized with urethane. One pregnant uterine horn was exposed and a polyethylene catheter bearing on the tip a latex balloon filled with saline was inserted into the lumen. The catheter was connected to an amplifying/recording system via a pressure-transducer. […] The percent variation of the AUC values relative to the spontaneous uterine response observed after each compound administration was calculated in comparison to the value recorded before the first dose-administration (basal value). The effect of compound I or compound II was evaluated by comparing pre- and post-treatment luminal uterine pressure values. For the oral administration the same computation procedure was applied at different time points after treatment. Statistical differences between treatment groups at each time-point were determined by using one-way ANOVA followed by Tukey test. Both compounds intravenously or orally administered were able to markedly reduce spontaneous uterine

[3] = In vivo conversion of compound I to compound II
Procedure: The invention is based on the discovery that compound I ((3S)-3-({[(2S)-3-(biphenyl-4-ylsulfonyl)-1,3-thiazolidin-2-yl]carbonyl}-amino)-3-(4-fluorophenyl)propyl L-valinate, represented by formula I, below) and salts thereof are converted in vivo to 3-([1,1′-biphenyl]-4-ylsulfonyl)-N-[1-(4-fluorophenyl)-3-hydroxypropyl]-1,3-thiazolidine-2-carboxamide (represented by formula II, below).
Compound II is a competitive and reversible prostaglandin F2α receptor antagonist (human FP2α receptor Ki=6 nM) that is under development for the management of preterm labor by inhibition of premature uterine contractions.

[4] = Non-specific binding to cell-free transwells; format: in vitro ADME; conditions: 1.5, 3 and 6 μM; apical pH 6.5, basolateral pH 7.4
Procedure: Non-specific binding and recovery was assessed across cell-free transwells.
Compound I was tested at 1.5, 3 and 6 μM in duplicate cell-free transwells. The test was performed in a pH gradient between the apical and the basolateral compartment. […] The following sampling times were performed: 60 and 120 min for the basolateral compartment (receiver) and 120 min for the apical compartment (donor). Samples obtained were analyzed by LC-MS, both compound I and compound II were monitored in order to assess percent of recovery.

[5] = Stability in HBSS buffer of the Caco-2 experiments; format: in vitro ADME; conditions: HBSS buffer (2% DMSO final concentration) at 37° C. for 60 and 120 minutes
Procedure: Stability of both compound I and compound II was assessed during the test. […] An aliquot of each solution was sampled at time zero (t=0) to assess the starting concentrations of the compounds. The solutions were incubated at 37° C. for the duration of the transport experiment. An aliquot of each solution was sampled at the end of experiment (t=120) to assess the final concentrations of compound I and compound II. Samples were analyzed by LC-MS.

Caco-2 cell monolayer = experiment: Bidirectional permeability across Caco-2 cell monolayers; format: in vitro ADME, human
Procedure: (§1) Compound I was dissolved in HBSS buffer (1% DMSO final concentration) at the concentrations of 1.5, 3 and 6 μM. Each concentration/sampling time was run in duplicate well. The test was performed in a gradient pH: the apical compartment (mucosal) was at pH 6.5, the basolateral compartment (serosal) was at pH 7.4.
(§2) Apical to basolateral (A→B, mucosal to serosal) transport: 200 μL of each concentration of compound I was added to the apical compartment and 400 μL of HBSS was added to the basolateral compartment. The plates were incubated at 37° C. An aliquot of the basolateral compartment was sampled after 60 and 120 min (t=60 and t=120). An aliquot of the apical compartment was sampled at the starting time (t=0) and after 120 min. (t=120).
(§3) Basolateral to apical (B→A, serosal to mucosal) transport: 400 μL of each concentration of compound I was added to the basolateral compartment and 200 μL of HBSS was added to the apical compartment. The plates were incubated at 37° C. An aliquot of the apical compartment was sampled after 60 and 120 min (t=60 and t=120). An aliquot of the basolateral compartment was sampled at the starting time (t=0) and after 120 min. (t=120). All samples were analyzed by LC/MS monitoring both compound I and the appearance of compound II.
as §1, with “II” for “I”
as §2, with “II” for “I”
as §3, with “of compound II was added” for “of compound I was added”, “LC/MS monitoring compound II.” for “LC/MS monitoring both compound I and the appearance of compound II.”

PepT1 transporter = target: T1, PepT1 transporter (Homo sapiens, UniProt P46059); experiment: Mucosal-to-serosal transport in Caco-2 after pre-treatment with PepT1 substrate Gly-Sar; format: in vitro ADME
T1 construct: host or cells: Caco-2
T1 sequence (P46059 1-708): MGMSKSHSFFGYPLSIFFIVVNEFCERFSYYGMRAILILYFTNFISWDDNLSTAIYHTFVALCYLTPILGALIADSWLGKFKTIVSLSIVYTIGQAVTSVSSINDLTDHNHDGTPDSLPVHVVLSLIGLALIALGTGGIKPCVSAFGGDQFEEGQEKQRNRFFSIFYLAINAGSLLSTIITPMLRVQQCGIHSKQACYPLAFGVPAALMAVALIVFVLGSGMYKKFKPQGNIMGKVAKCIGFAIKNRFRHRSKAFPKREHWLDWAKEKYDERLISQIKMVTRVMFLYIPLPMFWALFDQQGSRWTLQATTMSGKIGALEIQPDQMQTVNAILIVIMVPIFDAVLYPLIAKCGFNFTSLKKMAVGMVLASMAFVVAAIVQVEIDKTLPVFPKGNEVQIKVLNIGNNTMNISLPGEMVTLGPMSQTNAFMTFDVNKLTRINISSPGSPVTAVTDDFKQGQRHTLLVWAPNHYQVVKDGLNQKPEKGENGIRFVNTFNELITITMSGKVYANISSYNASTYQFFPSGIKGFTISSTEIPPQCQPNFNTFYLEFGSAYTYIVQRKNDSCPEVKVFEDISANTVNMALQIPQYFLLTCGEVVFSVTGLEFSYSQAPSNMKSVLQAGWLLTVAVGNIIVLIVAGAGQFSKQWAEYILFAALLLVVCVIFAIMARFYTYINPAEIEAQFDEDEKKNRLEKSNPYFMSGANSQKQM
Procedure: The differentiated cells were pre-treated for 30 min. with 10 mM of Gly-Sar in order to block the active transporter PepT1.
as §1, with “[…].” for “μM.”
Apical to basolateral (A→B, mucosal to serosal) transport: 200 μL of each concentration of compound I was added to the apical compartment and 400 μL of HBSS was added to the basolateral compartment. The plates were incubated at 37° C. An aliquot of the basolateral compartment was sampled after 60 and 120 min (t=60 and t=120). An aliquot of the apical compartment was sampled at the starting time (t=0) and after 120 min. (t=120). All samples were analyzed by LC/MS monitoring both compound I and the appearance of compound II.

With CC(C)[C@H](N)C(=O)OCC[C@H](NC(=O)[C@@H]1SCCN1S(=O)(=O)c1ccc(-c2ccccc2)cc1)c1ccc(F)cc1 [Compound I, (3S)-3-({[(2S)-3-(biphenyl-4-ylsulfonyl)-1,3-thiazolidin-2-yl]carbonyl}-amino)-3-(4-fluorophenyl)propyl L-valinate] the solubility ([1]; FaSSIF, pH 6.5 (fasted state), read-out: Solubility in FaSSIF pH 6.5) was 70 µg/mL (≈ 117 µM), the solubility ([1]; FeSSIF, pH 5.0 (fed state), read-out: Solubility in FeSSIF pH 5.0) was 90 µg/mL (≈ 150 µM) and the “Effect on spontaneous uterine contraction (FIG. 2)” value [2] was “dose-dependent and reversible effect”. The “Conversion to compound II after gastro-intestinal tract administration” value [3] was “rapidly converted to compound II”, the “Non-specific binding in the Caco-2 test system without cells” value [4] was “excluded” and the “Stability in HBSS buffer” value [5] was “stable”. For the same compound, the “Conversion of compound I into compound II in Caco-2 test” value (Caco-2 cell monolayer) was “confirmed”, the “Compound I in receiving (apical) compartment, basolateral to apical” value (Caco-2 cell monolayer; 60 and 120 minutes) was “not detected” and the “Compound I in receiving (basolateral) compartment, apical to basolateral” value (Caco-2 cell monolayer; 60 and 120 minutes) was “not detected”. The “Recovery of compound I in apical compartment at end of apical to basolateral experiment” value (Caco-2 cell monolayer; 120 min) was “low recovery”, the “Passage through the Caco-2 cell monolayer” value (Caco-2 cell monolayer; bi-directional test) was “did not pass through the cell monolayer” and the “PepT1 mediation of transport across Caco-2 monolayers” value (PepT1 transporter) was “likely not mediated by PepT1”. For the same compound, the “Compound I in receiving compartment after Gly-Sar pre-treatment” value (PepT1 transporter; 10 mM Gly-Sar, A→B, 60 and 120 min) was “not detected”.

Reference: patent US11524003B2, “Alpha-amino esters of hydroxypropylthiazolidine carboxamide derivative and salt form, crystal polymorph thereof” (ObsEva S.A., priority 2016, dated 2022)
